According to US12673954B2 (BRISTOL-MYERS SQUIBB COMPANY, priority 2021, dated 2026):
Where two headings read alike, the source gives them in different places.

Tests used:
[1] = test system: NF-κB pathway, THP1-Dual™ cells; assay: STING reporter assay in THP1-Dual cells, NF-κB pathway (SEAP, QUANTI-Blue); type: cell-based, human; settings: THP1-Dual cells, 10% human plasma, 20 hours, SEAP, 100% activation = 100 μM cGAMP, read-out: NFkB (EC50 μM)
From the text: (§1) THP1-Dual™ cells were derived from the human THP-1 monocyte cell line by stable integration of two inducible reporter constructs. To this end, THP1-Dual™ cells allow the simultaneous study of the NF-κB pathway, by monitoring the activity of SEAP, and the IRF pathway by assessing the activity of a secreted luciferase (Lucia). Both reporter proteins are readily measurable in the cell culture supernatant when using QUANTI-Blue™, a SEAP detection reagent, and QUANTI-Luc™, a luciferase detection reagent.
(§2) THP1-Dual™ cells induce the activation of NF-κB in response to STING agonists. They also trigger the IRF pathway upon stimulation with STING agonists, such as cGAMP. Here, the THP-1-Dual cells were used to assess STING specific binders for function on the cellular level.
(§3) Serial dilutions of compounds in DMSO were added to low volume 384 well plates at 100 nl/well using an ECHO acoustic dispenser (Labcyte, model 550) to achieve final starting concentration of 100 μM in cell suspension. […] One column of the plate was reserved for treatment with cGAMP at 100 μM for 100% activation calculation and one column for no treatment (DMSO only) for baseline activation. Plates were then incubated in 37° C. incubator at 5% CO2 for 20 hours.
(§4) Plates were read on the Envision (Perkin Elmer) at 620 nm wavelength (OD620). In the luciferase assay, 5 μl of Quantiluc (Invivogen, Rep-qlc2) is added to white 384 well plates seeded with THP1 cells and read at 5 minutes on the Envision (Perkin Elmer) using a luminescence protocol (RLU). 100% activation was determined by value (RLU) of THP-1 Dual STING cells stimulated with 100 μM cGAMP (Invivogen, cat #TLRL-NACGA23-5).

[2] = test system: IRF pathway, THP1-Dual™ cells; assay: STING reporter assay in THP1-Dual cells, IRF pathway (Lucia luciferase, QUANTI-Luc); type: cell-based, human; settings: THP1-Dual cells, 10% human plasma, 20 hours, Lucia luciferase, 100% activation = 100 μM cGAMP, read-out: IRF (EC50 μM)
From the text: as §1, §2, §3, §4

EC50 ([1]; Homo sapiens, THP1-Dual, 20 h)	EC50 ([2]; Homo sapiens, THP1-Dual, 20 h)	EC50 [1]	EC50 [2]	SMILES
4 µM	4 µM	–	–	O=C(Cc1cc(F)cc2cc(CNC(=O)c3cnn4cccnc34)oc12)OCC(F)(F)F [EXAMPLE 366, 2,2,2-Trifluoroethyl 2-(5-fluoro-2-((pyrazolo[1,5-a]pyrimidine-3-carboxamido)methyl)benzofuran-7-yl)acetate]
1.5 µM	2.1 µM	–	–	COC(=O)c1cc(C)cc2cc(C(C)NC(=O)c3cnn4cccnc34)oc12 (single isomer, unassigned) [Example 97, Methyl-5-methyl-2-(1-(pyrazolo[1,5-a]pyrimidine-3-carboxamido)ethyl)benzofuran-7-carboxylate]
17 µM	1.2 µM	–	–	COC(=O)c1cc(Cl)cc2cc(CNC(=O)c3cncc4scnc34)oc12 [Example 72, Methyl 5-chloro-2-((thiazolo[5,4-c]pyridine-7-carboxamido)methyl)benzofuran-7-carboxylate]
8.5 µM	6.7 µM	–	–	COC(=O)Cc1cc(F)cc2cc(CNC(=O)c3cnn4cccnc34)oc12 [Example 47, Methyl 2-(5-fluoro-2-((pyrazolo[1,5-a]pyrimidine-3-carboxamido)methyl)benzofuran-7-yl)acetate]
1.9 µM	1.9 µM	–	–	CSC(=O)c1cc(Cl)cc2cc([C@H](C)NC(=O)c3cnn4cccnc34)oc12 [EXAMPLE 401]
16 µM	19 µM	–	–	Cc1cc(C(=O)OCC(F)(F)F)c2oc(CN3CCc4ccncc4C3=O)cc2c1 [EXAMPLE 376, 2,2,2-Trifluoroethyl 5-methyl-2-((1-oxo-3,4-dihydro-2,7-naphthyridin-2(1H)-yl)methyl)benzofuran-7-carboxylate]
2.3 µM	2.6 µM	–	–	Cc1cc(C(=O)OCC(F)(F)F)c2oc(Cn3ccc4ccncc4c3=O)cc2c1 [EXAMPLE 375, 2,2,2-Trifluoroethyl 5-methyl-2-((1-oxo-2,7-naphthyridin-2(1H)-yl)methyl) benzofuran-7-carboxylate]
20 µM	21 µM	–	–	COC(=O)c1cc(C)cc2cc(CN3Cc4ccncc4C3=O)oc12 [Example 88, Methyl 5-methyl-2-((3-oxo-1,3-dihydro-2H-pyrrolo[3,4-c]pyridin-2-yl)methyl)benzofuran-7-carboxylate]
> 100 µM	24 µM	–	–	COC(=O)c1cc(Cl)cc2cc(CNC(=O)c3cncc4ncn(C)c34)oc12 [Example 70, Methyl 5-chloro-2-((1-methyl-1H-imidazo[4,5-c]pyridine-7-carboxamido)methyl)benzofuran-7-carboxylate]

More lines, now with the values behind:

SMILES	EC50 ([1]; Homo sapiens, THP1-Dual, 20 h)	EC50 ([2]; Homo sapiens, THP1-Dual, 20 h)	EC50 [1]	EC50 [2]
Cc1cc(C(=O)OC2CC(F)(F)C2)c2oc(CNC(=O)c3cnn4cccnc34)cc2c1 [EXAMPLE 275, 3,3-Difluorocyclobutyl 5-methyl-2-((pyrazolo[1,5-a]pyrimidine-3-carboxamido)methyl)-benzofuran-7-carboxylate]	0.72 µM	0.94 µM	–	–
COC(=O)c1ccc(Cl)c2cc(CNC(=O)c3cnn4cccnc34)oc12 [EXAMPLE 26, Methyl 4-chloro-2-((pyrazolo[1,5-a]pyrimidine-3-carboxamido)methyl)benzofuran-7-carboxylate]	0.67 µM	0.63 µM	–	–
O=C(OCC(F)(F)F)c1cccc2cc(CNC(=O)c3cnn4cccnc34)oc12 [EXAMPLE 217, 2,2,2-Trifluoroethyl 2-((pyrazolo[1,5-a]pyrimidine-3-carboxamido)methyl)benzofuran-7-carboxylate]	1.6 µM	1.3 µM	–	–
Cc1cc(C(=O)OC2CC(F)(F)C2)c2oc(CNC(=O)c3cnn4cccnc34)c(Cl)c2c1 [EXAMPLE 303, 3,3-Difluorocyclobutyl 3-chloro-5-methyl-2-((pyrazolo[1,5-a]pyrimidine-3-carboxamido)methyl)benzofuran-7-carboxylate]	0.58 µM	0.53 µM	–	–
C[C@@H](OC(=O)c1c(F)ccc2cc(CNC(=O)c3cnn4cccnc34)oc12)C(F)(F)F [EXAMPLE 285, (R)-1,1,1-Trifluoropropan-2-yl 6-fluoro-2-((pyrazolo[1,5-a]pyrimidine-3-carboxamido)methyl)benzofuran-7-carboxylate]	1.9 µM	1.4 µM	–	–
COC(=O)c1cc(F)cc2cc(CN3Cc4ccncc4C3=O)oc12 [EXAMPLE 43, Methyl 5-fluoro-2-((3-oxo-1,3-dihydro-2H-pyrrolo[3,4-c]pyridin-2-yl)methyl)benzofuran-7-carboxylate]	24 µM	19 µM	–	–
O=C(OCc1cccc(CO)c1)c1cc(Cl)cc2cc(CNC(=O)c3cnn4cccnc34)oc12 [EXAMPLE 252, 3-(Hydroxymethyl)benzyl 5-chloro-2-((pyrazolo[1,5-a]pyrimidine-3-carboxamido)methyl)benzofuran-7-carboxylate]	5.4 µM	6.4 µM	–	–
Cc1cc(C(=O)O)c2oc(CNC(=O)c3cncc4cccnc34)cc2c1 [EXAMPLE 192, 2-((1,6-naphthyridine-8-carboxamido)methyl)-5-methylbenzofuran-7-carboxylic acid]	94 µM	79 µM	–	–
O=C(OC1CC(F)(F)C1(F)F)c1cc(F)cc2cc(CNC(=O)c3cnn4cccnc34)oc12 (single isomer, unassigned) [EXAMPLE 321, 2,2,3,3-Tetrafluorocyclobutyl 5-fluoro-2-((pyrazolo[1,5-a]pyrimidine-3-carboxamido)methyl)benzofuran-7-carboxylate]	–	–	0.38 µM	0.3 µM
Cc1cnc2c(C(=O)NCc3cc4cccc(C(=O)OCC(F)(F)F)c4o3)cnn2c1 [EXAMPLE 220, 2,2,2-Trifluoroethyl 2-((6-methylpyrazolo[1,5-a]pyrimidine-3-carboxamido)methyl)benzofuran-7-carboxylate]	4.8 µM	3.8 µM	–	–
O=C(OCC(F)(F)C(F)F)c1cccc2cc(CN3CCc4ccncc4C3=O)oc12 [EXAMPLE 213, 2,2,3,3-Tetrafluoropropyl 2-((1-oxo-3,4-dihydro-2,7-naphthyridin-2(1H)-yl)methyl)benzofuran-7-carboxylate]	86 µM	79 µM	–	–
COC(=O)c1c(O)c(Cl)cc2cc(CNC(=O)c3cnn4cccnc34)oc12 [EXAMPLE 127, Methyl 5-chloro-6-hydroxy-2-((pyrazolo[1,5-a]pyrimidine-3-carboxamido)methyl)benzofuran-7-carboxylate]	5.6 µM	4.7 µM	–	–
CC(OC(=O)c1cccc2cc(CN3CCc4ccncc4C3=O)oc12)C(F)(F)F (single isomer, unassigned) [EXAMPLE 307, 1,1,1-Trifluoropropan-2-yl 2-((1-oxo-3,4-dihydro-2,7-naphthyridin-2(1H)-yl)methyl)benzo-furan-7-carboxylate]	–	–	8.9 µM	7.7 µM
O=C(OC(C(F)(F)F)C(F)(F)F)c1cc(F)cc2cc(CNC(=O)c3cnn4cccnc34)oc12 [EXAMPLE 238, 1,1,1,3,3,3-Hexafluoropropan-2-yl 5-fluoro-2-((pyrazolo[1,5-a]pyrimidine-3-carboxamido)methyl)benzofuran-7-carboxylate]	1.7 µM	1.6 µM	–	–
COc1cc(C(=O)OC(C)C(F)(F)F)c2oc(CNC(=O)c3cnn4cccnc34)cc2c1 (single isomer, unassigned) [EXAMPLE 346, 1,1,1-Trifluoropropan-2-yl 5-methoxy-2-((pyrazolo[1,5-a]pyrimidine-3-carboxamido)methyl)benzofuran-7-carboxylate]	–	–	2.3 µM	3.2 µM
